Key:
[1] = test system: leukemic cells derived from ALL, AML, CML and CLL; test: Initial analysis of cytotoxicity in leukemic cells; type: cell-based; conditions: for toxicity to the leukemic cells tested: initial analysis of 12 compounds ALD-1 through ALD-12; for anti-leukemic activity: structure-activity summary
Procedure: (§1) The cells were seeded at an initial density of 50,000 cells per well in 100 μl of cell culture media constituted with or without drugs at increasing doses ranging from 1 to 10^7 fold. The assays were performed in 96-well cell culture plates which were maintained at 37° C. in 5% CO2 atmosphere for 24 h, 48 h, 72 h and 96 h. At the end of each incubation point; cell viability was measured by Cell Titer-Blue® Assay. The measurements were then expressed as the percentage of viable cells compared to the survival of respective control groups (untreated cells) defined as the maximum cell viability. The data obtained was further analyzed using Prism nonlinear regression software (Graphpad Software) for the curve-fitting and determination of IC50 values.

[2] = biological target: T1, Yes (Homo sapiens, UniProt P07947); test: Yes phosphorylation in K562 cells, Western blotting; type: cell-based; conditions: FIG. 11
T1 construct: K562 cells were plated in 10 cm dishes; endogenous in cells; host or cells: K562

[3] = biological target: T2, Lyn (Homo sapiens, UniProt P07948); test: Lyn phosphorylation in K562 cells, Western blotting; type: cell-based; conditions: FIG. 11
T2 construct: K562 cells were plated in 10 cm dishes; endogenous in cells; host or cells: K562

[4] = biological target: T3, Src (Homo sapiens, UniProt P12931); test: Src phosphorylation in K562 cells, Western blotting; type: cell-based; conditions: FIGS. 9 and 10
T3 construct: reduced the levels of phosphorylated Src in K562 cells; endogenous in cells; host or cells: K562

[5] = test system: PARP cleavage in Gleevec-resistant CML cell lines; test: PARP cleavage (apoptosis marker), Western blotting; type: cell-based; conditions: FIG. 4
[6] = test system: Gleevec resistant K562 cells; test: Cytotoxicity in Gleevec resistant K562 cells (Cell Titer-Blue); type: cell-based; conditions: for IC50: Homo sapiens, K562
Procedure: Hela (established from epithelioid cervical carcinoma), were purchased from the American Type Culture Collection (ATCC, Manassas, Va.). SN12C and ACHN cells were provided by Dr. Charles Sawyers. […] Normal lymphocyte 9093 was purchased from ATCC. K562 and normal lymphocytes were maintained in RPMI media (Life Technologies) supplemented with 20% fetal bovine serum (FBS). […] All cells were maintained at 37° C. under a humidified atmosphere of 95% air and 5% CO2.
as §1

[7] = test system: BV173-GFP, a Gleevec resistant chronic myeloid leukemic cells; test: Preclinical efficacy, BV173-GFP leukemia in NSG-B2m mice; type: in vivo; conditions: up to 250 mg/kg intraperitoneal for 5 weeks
Procedure: Two days after leukemia cell injection, the mice received intraperitoneal treatments of DMSO, or ALD-10 in DMSO. Following injection cells, the mice were randomized into two groups (6/group) to receive DMSO, or ALD-10. The mice received up to 250 mg/kg of ALD10 for 5 weeks. […] The median survival for ALD-10 and DMSO treated mice was 42 and 39 days, respectively.

[8] = test system: Crkl; test: Crkl phosphorylation in K562 cells, Western blotting; type: cell-based; conditions: FIG. 8
[9] = test system: STAT5; test: STAT5 phosphorylation in K562 cells, Western blotting; type: cell-based; conditions: FIG. 7
[10] = biological target: T4, LCK (Homo sapiens, UniProt P06239); test: LCK phosphorylation in K562 cells, Western blotting; type: cell-based; conditions: FIG. 11
T4 construct: K562 cells were plated in 10 cm dishes; endogenous in cells; host or cells: K562

[11] = biological target: T5, T315I mutant Bcr-Abl (Homo sapiens, UniProt P00519, T315I); test: Bcr-Abl phosphorylation in K562 cells, Western blotting; type: cell-based; conditions: in the presence of Gleevec, FIGS. 5 and 6
T5 construct: K562 cells that express the T315I mutant Bcr-Abl; BCR (fusion partner, P11274 N-terminal part); endogenous in cells; host or cells: K562 (Gleevec-resistant); the other entry of the earlier key: BCR (P11274, Breakpoint cluster region protein)

[12] = test system: Bcr-Abl; conditions: in vitro, more potent than imatinib; cited from earlier work

T2 sequence (P07948 whole entry): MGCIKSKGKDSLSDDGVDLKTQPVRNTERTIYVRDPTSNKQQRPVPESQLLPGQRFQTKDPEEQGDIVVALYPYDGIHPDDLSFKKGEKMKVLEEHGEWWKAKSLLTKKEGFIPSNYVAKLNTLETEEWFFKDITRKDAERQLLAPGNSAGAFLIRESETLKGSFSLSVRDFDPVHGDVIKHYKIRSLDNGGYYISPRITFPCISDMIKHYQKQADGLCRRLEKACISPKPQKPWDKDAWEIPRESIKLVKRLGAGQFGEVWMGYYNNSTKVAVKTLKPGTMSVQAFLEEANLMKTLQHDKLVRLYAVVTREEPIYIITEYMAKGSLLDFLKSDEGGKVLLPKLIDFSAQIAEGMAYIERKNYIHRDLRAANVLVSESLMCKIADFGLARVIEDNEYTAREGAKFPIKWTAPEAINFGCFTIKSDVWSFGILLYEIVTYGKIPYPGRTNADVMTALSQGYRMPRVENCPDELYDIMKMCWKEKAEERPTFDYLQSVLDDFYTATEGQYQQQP
T4 sequence (P06239 whole entry): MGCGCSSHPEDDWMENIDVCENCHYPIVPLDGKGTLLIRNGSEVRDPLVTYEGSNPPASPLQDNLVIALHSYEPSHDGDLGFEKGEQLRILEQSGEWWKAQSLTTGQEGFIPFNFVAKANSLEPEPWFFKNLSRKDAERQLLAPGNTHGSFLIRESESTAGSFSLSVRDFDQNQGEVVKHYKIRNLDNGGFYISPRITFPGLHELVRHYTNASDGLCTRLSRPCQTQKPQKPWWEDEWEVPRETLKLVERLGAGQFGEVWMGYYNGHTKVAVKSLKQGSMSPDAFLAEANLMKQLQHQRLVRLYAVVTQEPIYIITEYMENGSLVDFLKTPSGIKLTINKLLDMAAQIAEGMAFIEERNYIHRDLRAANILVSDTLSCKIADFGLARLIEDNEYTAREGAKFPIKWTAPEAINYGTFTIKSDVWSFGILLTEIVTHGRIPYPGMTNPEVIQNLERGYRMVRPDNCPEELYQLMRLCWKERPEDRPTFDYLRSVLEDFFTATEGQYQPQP
T3 sequence (P12931 whole entry): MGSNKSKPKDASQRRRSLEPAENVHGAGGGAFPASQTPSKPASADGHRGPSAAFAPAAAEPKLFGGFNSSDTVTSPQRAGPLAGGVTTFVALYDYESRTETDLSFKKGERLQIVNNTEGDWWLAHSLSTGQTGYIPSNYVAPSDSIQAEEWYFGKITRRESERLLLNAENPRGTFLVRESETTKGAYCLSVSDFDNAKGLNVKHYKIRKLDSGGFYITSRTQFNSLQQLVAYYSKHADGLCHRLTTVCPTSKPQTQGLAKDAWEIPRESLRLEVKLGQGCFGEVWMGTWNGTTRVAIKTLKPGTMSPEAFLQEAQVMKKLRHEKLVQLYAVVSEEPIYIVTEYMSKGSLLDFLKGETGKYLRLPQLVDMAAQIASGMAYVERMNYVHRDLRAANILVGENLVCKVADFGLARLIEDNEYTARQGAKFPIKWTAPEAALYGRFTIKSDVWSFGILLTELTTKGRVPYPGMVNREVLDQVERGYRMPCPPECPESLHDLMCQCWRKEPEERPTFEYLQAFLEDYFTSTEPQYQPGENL
T1 sequence (P07947 whole entry): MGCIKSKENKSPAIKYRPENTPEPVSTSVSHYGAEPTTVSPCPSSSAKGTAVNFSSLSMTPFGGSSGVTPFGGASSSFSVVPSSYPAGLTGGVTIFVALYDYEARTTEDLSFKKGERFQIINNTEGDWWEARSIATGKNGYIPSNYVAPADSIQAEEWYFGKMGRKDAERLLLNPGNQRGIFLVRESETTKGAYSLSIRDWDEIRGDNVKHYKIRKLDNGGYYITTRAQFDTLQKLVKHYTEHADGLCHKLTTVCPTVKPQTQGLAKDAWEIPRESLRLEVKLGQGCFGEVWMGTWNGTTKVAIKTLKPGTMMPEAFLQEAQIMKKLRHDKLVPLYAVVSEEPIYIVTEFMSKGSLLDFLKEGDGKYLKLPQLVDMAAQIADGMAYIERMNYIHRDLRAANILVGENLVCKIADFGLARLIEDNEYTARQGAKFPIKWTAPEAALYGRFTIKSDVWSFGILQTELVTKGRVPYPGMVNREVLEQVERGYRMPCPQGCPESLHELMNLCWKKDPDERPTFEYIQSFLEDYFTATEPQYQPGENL

phosphorylation of Lyn [3] | phosphorylation of Src [4] | phosphorylation of Lck [10] | phosphorylation of Bcr-Abl Kinase [11] | Structure (SMILES) | toxicity to the leukemic cells tested [1] | anti-leukemic activity [1] | phosphorylation of Yes [2] | PARP cleavage (apoptotic cell death) [5] | IC50 [6] [nM] | activity of the mice compared to DMSO treated mice [7] | liver tumor mass compared to DMSO treated mice [7] | median survival ([7]; DMSO 39 days, Log-rank P=0.0036, Gehan-Breslow-Wilcoxon P=0.0045) [days] | survival (Kaplan-Meier) ([7]; DMSO treated 40 days) [days] | CrkL phosphorylation [8] | STAT5 phosphorylation [9] | cytotoxicity to Gleevec resistant CML (GRCML) ([6]; Gleevec resistant CML, cell line not named) | cytotoxicity (in words) ([6]; Gleevec resistant K562 cells, FIG. 1) | affinity for the ATP binding site on Bcr-Abl relative to imatinib [12]
 | inhibited |  | block phosphorylation | CCc1cc2cc3c(cc2nc1SCC(=O)Nc1ccc(OC)cc1OC)OCCO3 [ALD-4, N-(2,4-Dimethoxy-phenyl)-2-(8-ethyl-2,3-dihydro-[1,4]dioxino[2,3-g]quinolin-7-ylsulfanyl)-acetamide] | toxic | anti-leukemic activity |  |  |  |  |  |  |  |  |  | highly cytotoxic |  | 
not | did not affect | not |  | CCc1cc2cc3c(cc2nc1SCC(=O)Nc1ccc(OC)cc1)OCCO3 [ALD-11, 2-(8-Ethyl-2,3-dihydro-[1,4]dioxino[2,3-g]quinolin-7-ylsulfanyl)-N-(4-methoxy-phenyl)-acetamide] | non-toxic | inactive |  | did not reveal PARP cleavage |  |  |  |  |  | did not affect | did not affect |  | not cytotoxic | 
significantly inhibited | inhibited | significantly inhibited | block phosphorylation | CCc1cc2cc3c(cc2nc1SCC(=O)Nc1ccccc1OC)OCCO3 [ALD-12, 2-(8-ethyl-2,3-dihydro-[1,4]dioxino[2,3-g]quinolin-7-ylsulfanyl)-N-(2-methoxy-phenyl)-acetamide] | toxic | anti-leukemic activity | significantly inhibited | induction of PARP cleavage | 69.7 |  |  |  |  | inhibited | inhibited |  |  | 

More lines, now with the values behind:

Structure (SMILES) | phosphorylation of Lyn [3] | phosphorylation of Src [4] | phosphorylation of Lck [10] | phosphorylation of Bcr-Abl Kinase [11] | toxicity to the leukemic cells tested [1] | anti-leukemic activity [1] | phosphorylation of Yes [2] | PARP cleavage (apoptotic cell death) [5] | IC50 [6] [nM] | activity of the mice compared to DMSO treated mice [7] | liver tumor mass compared to DMSO treated mice [7] | median survival ([7]; DMSO 39 days, Log-rank P=0.0036, Gehan-Breslow-Wilcoxon P=0.0045) [days] | survival (Kaplan-Meier) ([7]; DMSO treated 40 days) [days] | CrkL phosphorylation [8] | STAT5 phosphorylation [9] | cytotoxicity to Gleevec resistant CML (GRCML) ([6]; Gleevec resistant CML, cell line not named) | cytotoxicity (in words) ([6]; Gleevec resistant K562 cells, FIG. 1) | affinity for the ATP binding site on Bcr-Abl relative to imatinib [12]
CCc1cc2cc3c(cc2nc1SCC(=O)Nc1ccccc1C)OCCO3 [ALD-10, 2-(8-Ethyl-2,3-dihydro-[1,4]dioxino[2,3-g]quinolin-7-ylsulfanyl)-N-o-tolyl-acetamide] | significantly inhibited | inhibited | significantly inhibited | block phosphorylation | toxic | anti-leukemic activity | significantly inhibited | induction of PARP cleavage | 74.6 | considerably more active | reduced liver tumor mass | 42 | 48 | inhibited | inhibited |  |  | 
Cc1cn(-c2cc(NC(=O)c3ccc(C)c(Nc4nccc(-c5cccnc5)n4)c3)cc(C(F)(F)F)c2)cn1 [Nilotinib] |  |  |  |  |  |  |  |  |  |  |  |  |  |  |  |  |  | up to 50 times
COC(=O)c1ccc(NC(=O)CSc2nc3cc4c(cc3cc2C)OCCO4)cc1 [ALD-1, 4-[2-(8-Methyl-2,3-dihydro-[1,4]dioxino[2,3-g]quinolin-7-ylsulfanyl)-acetylamino]-benzoic acid methyl ester] |  |  |  |  | non-toxic |  |  |  |  |  |  |  |  |  |  |  |  | 

From patent US10639304B2, “Kinase inhibitors” (priority 2013, dated 2020)
